Active and inactive are the calls of the source.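 Rule for the calls: active = mean half-maximal activating concentration from the dose-response fit at or below a set limit; inactive = the rest.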
molecular target: CHO-XBP1 luciferase reporter, IRE1-XBP1 UPR activation; experiment: XBP1 luciferase reporter activation – CHO-XBP1 cells, luminescence, counter-screen for apoptotic UPR arm activators, dose response (AID 489040);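 note: reporter read after six hours of compound exposure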

Structure (SMILES)	EC50
O=C(CN(c1cccc(C(F)(F)F)c1)S(=O)(=O)c1ccc(Cl)c([N+](=O)[O-])c1)NCc1ccc(F)cc1	> 80 µM (inactive)
Cc1cc(C(=O)CCl)c(C)n1CC1COc2ccccc2O1 (configuration not stated)	> 80 µM (inactive)
O=C(CSc1ccccn1)Nc1nonc1[N+](=O)[O-]	> 80 µM (inactive)
O=C(COc1ccc(/C=N/NC(=O)c2cc3ccccc3o2)cc1Br)Nc1ccccc1	4.66 µM
CCCOc1ccc(N2C(=O)CC(N(O)c3ccccc3)C2=O)cc1 (configuration not stated)	> 80 µM (inactive)
Cc1[nH]c2ccccc2c1CN1CCC(Cc2ccccc2)CC1	> 80 µM (inactive)
COC(=O)c1ccc(-n2c(C)cc(C(=O)CCl)c2C)cc1	9.06 µM
Cc1ccnc(Nc2nc(-c3ccc(O)c(O)c3)cs2)c1	> 80 µM (inactive)
Cc1cccc(C)c1NC(=O)c1nc(S(=O)(=O)Cc2ccccc2)ncc1Cl	> 80 µM (inactive)
Cn1c(/C=C/c2ccc([N+](=O)[O-])o2)nc2ccccc2c1=O	> 80 µM (inactive)
COc1ccc(C2OC34CCCCC3C(C#N)(C#N)C2(C#N)C(=N)O4)cc1 (configuration not stated)	> 80 µM (inactive)
C=C(C(=O)c1ccccc1)C(C(=C)C(=O)c1ccccc1)c1ccc(OC)cc1	> 80 µM (inactive)
COc1ccc(/C=C\c2nc(=O)c3ccccc3o2)cc1	> 80 µM (inactive)
Brc1ccccc1CN1CCN(Cc2c[nH]c3ccccc23)CC1	> 80 µM (inactive)
CC1=C(CC/C(C)=N/NC(N)=S)C(C)(C)CCC1	inactive
Oc1ccc(CN2CCC(Cc3ccccc3)CC2)c2cccnc12	> 80 µM (inactive)
COc1ccc(-c2cc(=O)oc3c(C)c(OC(=O)c4cccs4)ccc23)cc1	> 80 µM (inactive)
Cc1cccc(-n2c(/C=C/c3ccc([N+](=O)[O-])o3)nc3ccccc3c2=O)c1	> 80 µM (inactive)
CCCCCCCCCn1c2c(c(=N)c3c1CCC3)CCCC2	inactive
C/C(CC(C)(C)C1CCCCC1)=N\NC(N)=S	inactive
CCCCCCCCCCn1c2c(c(=N)c3c1CCC3)CCC2	19.8 µM
COc1ccc(-c2cc(-c3ccccc3)c(C#N)c(S(C)(=O)=O)n2)cc1	5.94 µM
Cc1cccnc1Nc1nc(-c2ccc(O)c(O)c2)cs1	inactive
O=[N+]([O-])c1ccc(C=Nc2ccc(Cl)c([N+](=O)[O-])c2)s1	> 80 µM (inactive)

Structure (SMILES)	EC50
Cc1cc(O)c(-c2cc(O)c(C)cc2O)cc1O	> 80 µM (inactive)
COc1cc(/C=C/C(=O)N2C(=O)c3cccc(N)c3C2=O)cc(OC)c1OC	> 80 µM (inactive)
CN(C)S(=O)(=O)c1cccc(NC(=O)CSc2cccc3cccnc23)c1	> 80 µM (inactive)
CC(C)N1CSC(=S)N(Cc2ccccc2)C1	> 80 µM (inactive)
COc1cccc(N=Nc2ccc3cccnc3c2O)c1	> 80 µM (inactive)
Cc1ccc(Sc2c([N+](=O)[O-])c(=O)n(C)c3ccccc23)cc1	> 80 µM (inactive)
C=CCN1C(=O)/C(=C/c2ccc3c(c2)CCCN3CCC)C(=O)NC1=S	> 80 µM (inactive)
COc1ccc(-c2cc3ccccc3oc2=O)cc1NC(=S)NC(=O)c1ccc2c(c1)OCCO2	4.27 µM
Cc1ccc(NN2C(=O)C=C(c3ccccc3)C2=O)cc1	> 80 µM (inactive)
CN1CCN(c2ccc(NC(=O)c3ccc([N+](=O)[O-])o3)cc2Cl)CC1	> 80 µM (inactive)
N#CC1=C(N)OC2=C(CC/C2=C\c2ccccc2)C1c1ccccc1 (configuration not stated)	> 80 µM (inactive)
Oc1ccc(/C=N/Nc2ncnc3c2ncn3Cc2ccccc2)cc1O	inactive
COc1ccc(CNC[C@@H](CCCCN(C)Cc2ccc(OC)cc2)N2C[C@H](c3ccccc3)N(CCc3ccc(Cl)c(Cl)c3)C(=O)C2=O)cc1	> 80 µM (inactive)
Cc1ccc(S(=O)(=O)N(C(=O)c2ccncc2)c2ccc(OC(=O)c3ccncc3)c3ccccc23)c(C)c1	> 80 µM (inactive)
C/C(=N\NC(=O)c1ccc(Cl)cc1)c1ccccn1	> 80 µM (inactive)
Cc1cc(C)nc(S/C=C/C(=O)c2ccccc2)n1	> 80 µM (inactive)
Oc1ccc(-c2csc(Nc3ccccn3)n2)cc1O	> 80 µM (inactive)
CCOC(=O)C(=Cc1ccc(-n2ccnc2)cc1)C(=O)OCC	> 80 µM (inactive)
S=C1SCN(Cc2ccccn2)CN1Cc1ccco1	> 80 µM (inactive)
COc1cc(OC)cc(C(=O)NC(=S)Nc2cc3oc4ccccc4c3cc2OC)c1	> 80 µM (inactive)
Cc1ccc2[nH]cc(C(=O)CCl)c2c1	> 80 µM (inactive)
N#CC1(C#N)COC23CCCCC2C1(C#N)C(=N)O3 (configuration not stated)	> 80 µM (inactive)
COc1cc(/C=C(/C#N)c2nc3ccccc3[nH]2)ccc1OCC(=O)Nc1ccccc1C	> 80 µM (inactive)
CCOc1ccc(N2C(=O)/C(=C\c3cccs3)C(=O)NC2=S)cc1	> 80 µM (inactive)

Structure (SMILES)	EC50
CC1=CC(C)(C)Nc2ccc(OC(=O)CN3C(=O)CCC3=O)cc21	> 80 µM (inactive)
O=C1NC(=O)N(c2ccccc2)C(=O)/C1=C/C=C/c1ccco1	> 80 µM (inactive)
O=C(Nc1nc(-c2ccccn2)cs1)c1ccc(Br)s1	inactive
COc1ccc2c(c1)CCc1c(C(=O)Nc3cc(C)n(Cc4ccc(Cl)cc4)n3)noc1-2	> 80 µM (inactive)
O=C(/C=C/Sc1ccccc1)c1ccc(Cl)cc1	> 80 µM (inactive)
Cc1ccc(C)c(C(=O)Cn2ncc(Cl)c(Cl)c2=O)c1	> 80 µM (inactive)
Cc1ccc(-c2nn3c(C)nnc3s2)cc1NC(=O)c1ccc(-c2ccc(Cl)cc2Cl)o1	15.9 µM
CCOC(=O)Cc1csc(/N=C/c2c(O)n(-c3ccc(C)c(C)c3)c(=O)c3ccccc23)n1	18.3 µM
CC(C)c1ccc(N2C(=O)CC(Sc3nc4ccccc4o3)C2=O)cc1 (configuration not stated)	> 80 µM (inactive)
C/C(=N\NC(=O)COc1ccccc1-c1ccccc1)c1ccccn1	> 80 µM (inactive)
O=C(Nc1ccc(S(=O)(=O)N2CCOCC2)cc1)c1ccc([N+](=O)[O-])o1	> 80 µM (inactive)
CSC(=S)N/N=C(\C)c1ccccc1	> 80 µM (inactive)
COc1cccc(N=Nc2ccc(O)c3ncccc23)c1	> 80 µM (inactive)
COc1ccc(-c2csc3nc(-c4ccc(C)cc4)oc(=O)c23)cc1OC	> 80 µM (inactive)
C=CCSC(=C(C#N)C#N)c1cc2c([nH]1)CCCC2	> 80 µM (inactive)
CC1(C)CC(=O)C2=C(C1)Oc1nc3ccccc3cc1C2C(C#N)C#N (configuration not stated)	> 80 µM (inactive)
CCN(CC)S(=O)(=O)c1cc(NC(=O)Cn2ncc(Cl)c(Cl)c2=O)ccc1C	> 80 µM (inactive)
Cc1ccc(C)c(N=Cc2c(O)c3ccccc3oc2=O)c1	inactive
O=C(CSc1nc2ccc(Nc3nc(N4CCOCC4)nc(N4CCOCC4)n3)cc2s1)Nc1ccccc1F	5.61 µM
Cc1ccc(C(=O)Oc2ccc(Cl)c3cccnc23)cc1[N+](=O)[O-]	> 80 µM (inactive)
CCOc1cc(/C=N/Nc2cc(C)nc(-n3nc(C)cc3C)n2)ccc1O	> 80 µM (inactive)
Cc1ccc(-c2cc(-c3ccc(C)cc3)[n+](-c3ccccc3)c(-c3ccc(C)cc3)c2)cc1	> 80 µM (inactive)
CCC(=O)Nc1ccc(C(=O)Cn2ncc(Cl)c(Cl)c2=O)cc1	> 80 µM (inactive)
Nc1nc(CC(=O)CSc2ccc(Cl)cc2)nc(Nc2ccc(F)cc2)n1	> 80 µM (inactive)
